Tests used:
Assay in all cases: relative viability (nuclei count vs DMSO), 5 days (fraction); higher = more cells survive
FG-4592 + Alpelisib = compound: Cc1nc(C(=O)NCC(=O)O)c(O)c2ccc(Oc3ccccc3)cc12 [FG-4592] + Cc1nc(NC(=O)N2CCC[C@H]2C(N)=O)sc1-c1ccnc(C(C)(C)C(F)(F)F)c1 [Alpelisib] (partner 2 µM)
Outline: (§1)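 The day after seeding in 1536-well plates, lung cancer cell lines were treated by pin tool with a single drug, or with a fixed anchor-drug dose together with five library-drug doses (not always all listed) in √10 steps. After 5 days, a combined fix-and-stain solution (final 0.05% Triton X-100, 1% formaldehyde, 1 ug/ml Hoechst) was added. Nuclei counted on 4× images gave relative viability as treated counts over vehicle counts, reported as the median of duplicate plates.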

FG-4592 + Tozasertib = compound: Cc1nc(C(=O)NCC(=O)O)c(O)c2ccc(Oc3ccccc3)cc12 [FG-4592] + Cc1cc(Nc2cc(N3CCN(C)CC3)nc(Sc3ccc(NC(=O)C4CC4)cc3)n2)n[nH]1 [Tozasertib] (partner 0.1 µM)
Outline: as §1

IU1-47 + Lapatinib = compound: CC1=CC(=C(N1C2=CC=C(C=C2)Cl)C)C(=O)CN3CCCCC3 [IU1-47] + CS(=O)(=O)CCNCc1ccc(-c2ccc3ncnc(Nc4ccc(OCc5cccc(F)c5)c(Cl)c4)c3c2)o1 [Lapatinib] (partner 2 µM)
Outline: as §1

FG-4592 + Olaparib = compound: Cc1nc(C(=O)NCC(=O)O)c(O)c2ccc(Oc3ccccc3)cc12 [FG-4592] + O=C(c1cc(Cc2n[nH]c(=O)c3ccccc23)ccc1F)N1CCN(C(=O)C2CC2)CC1 [Olaparib] (partner 8 µM)
Outline: as §1

| Cell Line | relative viability (FG-4592 + Alpelisib; first compound 0.08 µM) | relative viability (FG-4592 + Alpelisib; first compound 0.253 µM) | relative viability (FG-4592 + Alpelisib; first compound 0.8 µM) | relative viability (FG-4592 + Alpelisib; first compound 2.53 µM) | relative viability (FG-4592 + Alpelisib; first compound 8 µM) | relative viability (FG-4592 + Tozasertib; first compound 0.08 µM) | relative viability (FG-4592 + Tozasertib; first compound 0.253 µM) | relative viability (FG-4592 + Tozasertib; first compound 0.8 µM) | relative viability (FG-4592 + Tozasertib; first compound 2.53 µM) | relative viability (FG-4592 + Tozasertib; first compound 8 µM) | relative viability (IU1-47 + Lapatinib; first compound 0.08 µM) | relative viability (IU1-47 + Lapatinib; first compound 0.253 µM) | relative viability (IU1-47 + Lapatinib; first compound 0.8 µM) | relative viability (IU1-47 + Lapatinib; first compound 2.53 µM) | relative viability (IU1-47 + Lapatinib; first compound 8 µM) | relative viability (FG-4592 + Olaparib; first compound 0.08 µM) | relative viability (FG-4592 + Olaparib; first compound 0.253 µM) | relative viability (FG-4592 + Olaparib; first compound 0.8 µM) | relative viability (FG-4592 + Olaparib; first compound 2.53 µM) | relative viability (FG-4592 + Olaparib; first compound 8 µM) |
| --- | --- | --- | --- | --- | --- | --- | --- | --- | --- | --- | --- | --- | --- | --- | --- | --- | --- | --- | --- | --- |
| NCI-H1666 | 0.866 | 0.862 | 0.953 | 0.886 | 0.644 | 0.651 | 0.592 | 0.594 | 0.657 | 0.56 | 0.613 | 0.658 | 0.621 | 0.584 | 0.508 | 0.764 | 0.744 | 0.809 | 0.796 | 0.779 |
| NCI-H1734 | 0.645 | 0.685 | 0.681 | 0.686 | 0.731 | 0.284 | 0.267 | 0.256 | 0.252 | 0.217 | 1.05 | 1.15 | 1.12 | – | 1.02 | 0.597 | 0.61 | 0.664 | 0.68 | 0.605 |
| NCI-H1755 | 0.906 | 0.888 | 0.906 | 0.945 | 0.878 | 0.56 | 0.51 | 0.568 | 0.678 | 0.655 | 1.17 | 1.1 | 1.15 | 1.11 | 0.872 | 0.873 | 0.837 | 0.762 | 0.907 | 0.799 |
| NCI-H1793 | 0.772 | 0.678 | – | 0.719 | 0.557 | 0.435 | 0.388 | – | 0.362 | 0.317 | 0.525 | 0.594 | 0.648 | – | 0.566 | – | 0.727 | – | 0.827 | 0.71 |
| NCI-H1915 | 1.04 | 1.02 | 1.05 | 1.01 | 1.05 | 0.405 | 0.439 | 0.497 | 0.444 | 0.369 | 0.992 | 1.01 | 0.976 | – | 0.999 | 0.25 | 0.248 | 0.276 | 0.253 | 0.282 |
| NCI-H1944 | 0.794 | 0.801 | 0.692 | 0.853 | 0.836 | 0.254 | 0.252 | 0.224 | 0.242 | 0.254 | 0.835 | 0.845 | 0.779 | – | 0.801 | 0.437 | 0.392 | 0.443 | 0.376 | 0.419 |
| NCI-H1975 | 0.679 | 0.555 | 0.672 | 0.655 | 0.56 | 0.772 | 0.78 | 0.868 | 0.783 | 0.683 | 0.844 | 0.879 | 0.934 | 0.883 | 0.846 | 0.786 | 0.747 | 0.883 | 0.849 | 0.721 |
| NCI-H1993 | 0.689 | 0.614 | 0.622 | 0.647 | 0.669 | 0.613 | 0.584 | 0.604 | 0.441 | 0.548 | 0.82 | 0.754 | 0.741 | 0.815 | 0.748 | 0.947 | 0.926 | – | 1.01 | 0.929 |
| NCI-H2009 | 1.18 | 1.06 | 1.19 | 1.15 | 1.22 | 0.715 | 0.58 | 0.758 | 0.713 | 0.655 | 0.997 | 1.03 | 1.07 | 0.43 | 1.54 | 0.663 | 0.637 | 0.715 | 0.718 | 0.621 |
| NCI-H2023 | 0.683 | 0.569 | 0.722 | 0.631 | 0.534 | 0.354 | 0.357 | 0.374 | 0.348 | 0.258 | 0.924 | 0.872 | 0.805 | 0.334 | 0.994 | 0.402 | 0.471 | 0.437 | 0.464 | 0.35 |
| NCI-H2085 | 0.911 | 0.889 | 0.967 | 1.04 | 0.935 | 0.79 | 0.774 | 0.758 | 0.792 | 0.933 | 0.7 | 0.77 | 0.941 | 0.681 | 0.685 | 0.738 | 0.779 | 0.845 | 0.744 | 0.873 |
| NCI-H2087 | 1.11 | 0.956 | 1.11 | 1.05 | 1.03 | 0.234 | 0.205 | 0.279 | 0.175 | 0.269 | 1.07 | 1.27 | 1.16 | 0.725 | 0.967 | 0.561 | 0.51 | 0.645 | – | 0.475 |
| NCI-H2126 | 0.744 | 0.787 | 0.661 | 0.769 | 0.69 | 0.842 | 0.775 | 0.782 | 0.721 | 0.575 | 0.802 | 0.767 | 0.807 | 0.523 | 0.753 | 0.964 | 0.846 | 0.857 | 0.876 | 0.919 |
| NCI-H2170 | 0.823 | 0.801 | 0.794 | 0.826 | 0.581 | 0.704 | 0.622 | 0.726 | 0.777 | 0.704 | 0.286 | 0.297 | 0.289 | 0.301 | 0.263 | 0.573 | 0.547 | 0.707 | 0.664 | 0.52 |
| NCI-H2228 | 0.536 | 0.545 | 0.759 | 0.766 | 0.637 | 0.276 | 0.262 | 0.226 | 0.288 | 0.225 | 0.974 | 0.885 | 1.19 | 0.833 | 0.734 | 0.386 | 0.697 | 0.794 | 0.517 | 0.693 |
| NCI-H2347 | 0.988 | – | 0.85 | 1.16 | 1.11 | 0.415 | – | 0.621 | 0.315 | 0.52 | 1.13 | 0.863 | 1.04 | 0.761 | 0.834 | 0.622 | 0.485 | 0.543 | 0.596 | 0.607 |
| NCI-H2405 | – | 0.399 | 0.655 | 0.638 | 0.715 | 0.631 | – | 0.763 | 0.735 | 0.757 | 1.04 | 1.12 | 1.1 | – | 1.11 | 0.752 | 0.772 | 0.948 | 0.809 | 0.859 |

Reference: the supplement of paper PMC10307832
